The test system of assay [1] is Plasmodium vivax. Kind of assay: Antimicrobial activity against Plasmodium vivax at ring stage.
The subject of assay [2] is Plasmodium vivax. Nature of the assay: Antimicrobial activity against Plasmodium vivax at trophozoite stage. Type of assay: functional, organism-based.
In assay [3] the test system is Plasmodium falciparum. Nature of the assay: Antimicrobial activity against Plasmodium falciparum at ring stage. The assay is classed as functional, organism-based.
Assay [4] deals with Plasmodium falciparum. Nature of the assay: Antimicrobial activity against Plasmodium falciparum harboring single copy of Pfmdr1 gene.
Assay [5] concerns Plasmodium vivax. Kind of assay: Antimicrobial activity against Plasmodium vivax harboring amplified Pvmdr1 gene. The assay is classed as functional, organism-based.
For assay [6], the system named is Plasmodium falciparum. Kind of assay: Antimicrobial activity against Plasmodium falciparum harboring amplified Pfmdr1 gene.
In assay [7] the test system is Plasmodium vivax. Nature of the assay: Antimicrobial activity against Plasmodium vivax harboring single copy of Pvmdr1 gene. Type of assay: functional, organism-based.

In general, IC50 refers to the concentration that inhibits the measured activity by half. Higher therefore signals a need for much substance.

On to `CCN(CC)CCCC(C)Nc1ccnc2cc(Cl)ccc12` (centres undefined) [CHLOROQUINE], for which the IC50 in the assay on Plasmodium vivax [1] came to 38 nM; in the assay on Plasmodium vivax [2], 442 nM.
In the case of `CC(C)(C)NC(=O)[C@@H]1C[C@@H]2CCCC[C@@H]2CN1C[C@@H](O)[C@H](Cc1ccccc1)NC(=O)[C@H](CC(N)=O)NC(=O)c1ccc2ccccc2n1`, the IC50 in the assay with Plasmodium falciparum [3] was 8300 nM.
`OC(c1cc(C(F)(F)F)nc2c(C(F)(F)F)cccc12)C1CCCCN1` (centres undefined) [MEFLOQUINE]: the concentration for half-maximal inhibition (IC50) was 77 nM in the assay with Plasmodium falciparum [4]; 176 nM in the assay with Plasmodium vivax [5]; 182 nM with Plasmodium falciparum [6]; 137 nM with Plasmodium falciparum [3]; 43 nM with Plasmodium vivax [7].
Compound `CC(C)c1nc(CN(C)C(=O)N[C@H](C(=O)N[C@@H](Cc2ccccc2)C[C@H](O)[C@H](Cc2ccccc2)NC(=O)OCc2cncs2)C(C)C)cs1` [RITONAVIR] returned an IC50 in the assay with Plasmodium falciparum [3] of 9660 nM.

The values above are taken from ChEMBL document CHEMBL1275446, “Stronger activity of human immunodeficiency virus type 1 protease inhibitors against clinical isolates of Plasmodium vivax than against those of P. falciparum” (Antimicrob Agents Chemother, 2008).
